From article PMC9386913 (Arthritis Research & Therapy, 2022)
Read-outs that look alike come from different tables or passages of the source.

How the values were obtained:
[1] = Peripheral blood leukocyte and subtype counts in MAD study; details: 150 mg, pre-dose baseline through 14-day dosing (n = 5)
LPS-stimulated monocytes = experiment: Cytokine secretion in LPS-stimulated monocytes; format: cell-based, human; details: LPS 100 ng/mL 4 or 24 h
Description: (§1) Culture supernatants were centrifuged, and the supernatants were collected and analyzed for selected cytokines and chemokines using Milliplex Magpix assays (catalog HCYTO – 60K; Millipore Sigma, Burlington, MA). Levels of proinflammatory cytokines TNF and MCP-1 for the monocytes and macrophages were quantified using specific ELISA kits (R&D, NJ, USA) according to the manufacturer’s recommendations. Data were processed using Milliplex Analyst, and significance was calculated using the one-way analysis of variance (ANOVA) with Dunnett’s post-test algorithms in GraphPad Prism version 5.01. PBMCs were isolated from buffy coat using the Ficoll gradient method. Monocytes were isolated using the […] Technologies Inc. kit (catalog number 19058; Vancouver, BC, Canada). […] Macrophages were then plated and allowed to acclimate for 24 h. […] Medium from the cultured macrophages was used for cytokine analysis using Magpix magnetic beads (Catalog HCYTO – 60K; Millipore Sigma, Burlington, MA). Cell pellets from the macrophage cultures were collected for western blot analysis using capillary electrophoresis to analyze the effect on TTP, with glyceraldehyde 3-phosphate dehydrogenase (GAPDH) used as the house-keeping protein in the capillary electrophoresis. Antibodies against total TTP (CST#7162 Rabbit Monoclonal antibody) and GAPDH (CST#5174 Rabbit Monoclonal antibody) were used to detect the respective proteins.

THP-1 cells = experiment: In vitro tachyphylaxis model: daily treatment of THP-1 cells, LPS-stimulated TNF; details: up to 14 days, 0.1 or 1 μM CC-99677 or 1 μM p38 inhibitors
[2] = system: TNF, IL-6, and IL-1β transcripts; experiment: Cytokine mRNA decay in LPS-stimulated macrophages with actinomycin D; format: cell-based, human; details: 1 μM CC-99677 with 10 μg/mL actinomycin D, normalized to GAPDH
From the text: After each time point, macrophages were washed with PBS and lysed with RLT Plus Lysis Buffer (Qiagen, Germantown, MD). RNA was isolated using the QiaCube, followed by cDNA preparation using Superscript IV enzyme mix (Invitrogen, Thermo Fisher, Waltham, MA).

[3] = system: LPS-stimulated macrophages; experiment: Cytokine secretion in LPS-stimulated monocyte-derived macrophages; format: cell-based, human; details: LPS 100 ng/mL 4 or 24 h
Description: as §1

TTP = experiment: Total TTP protein by capillary electrophoresis in LPS-stimulated macrophages; format: cell-based, human; details: 4 h or 24 h
Description: Monocytes and macrophages were pre-treated for 1 h with DMSO or compound, followed by LPS stimulation (100 ng/mL) for 4 or 24 h (includes 1 h pre-treatment). Medium from the cultured macrophages was used for cytokine analysis using Magpix magnetic beads (Catalog HCYTO – 60K; Millipore Sigma, Burlington, MA). Cell pellets from the macrophage cultures were collected for western blot analysis using capillary electrophoresis to analyze the effect on TTP, with glyceraldehyde 3-phosphate dehydrogenase (GAPDH) used as the house-keeping protein in the capillary electrophoresis. Antibodies against total TTP (CST#7162 Rabbit Monoclonal antibody) and GAPDH (CST#5174 Rabbit Monoclonal antibody) were used to detect the respective proteins.

LPS-stimulated PBMCs = details: cited from earlier work
[4] = system: LPS-stimulated whole blood; experiment: Ex vivo LPS-stimulated whole blood cytokine/chemokine production (TruCulture) in dosed subjects; parameters: species or system human (healthy volunteers)
Description: Briefly, blood (1 mL) was drawn into the LPS-containing TruCulture tubes. The tubes were placed in a 37 °C block thermostat for 24 ± 1 h and then frozen at −70 °C. Media mixed with plasma were analyzed for TNF and other cytokine/chemokine levels. TNF inhibition in ex vivo LPS-stimulated blood was measured as a percentage change in TNF levels from baseline. Percentage change in other cytokines and chemokines in the ex vivo stimulation assay was also measured with respect to their baseline levels.

[5] = system: SEB/IL-2-stimulated PBMCs; experiment: Cytokine production in SEB/IL-2-stimulated PBMCs; format: cell-based, human; details: PBMCs from healthy donors and AS patients, SEB + IL-2 72 h
[6] = Plasma pharmacokinetics in MAD study (LC-MS/MS); format: in vivo, human (healthy volunteers); details: for Cmax: human, plasma
Description: PK parameters were calculated via non-compartmental methodology using Phoenix version 7 or higher (Princeton, NJ).

[7] = 150-mg dose level cohort, day 5
[8] = continuous dosing at 120 and 150 mg

CCOCc1cnc(Cl)nc1Oc1ccc2c(ccc3sc4c(c32)NC[C@@H](C)NC4=O)n1 [CC-99677]
Mean WBC, lymphocyte, monocyte, and neutrophil counts [1]: comparable to placebo
IL-1β secretion (LPS-stimulated monocytes): concentration-dependent inhibition
IL-6 secretion (LPS-stimulated monocytes): concentration-dependent inhibition
TNF secretion (LPS-stimulated monocytes): strong concentration-dependent inhibition
LPS-stimulated TNF production under continued daily treatment (THP-1 cells): suppressed TNF production throughout the treatment period
mRNA decay of TNF, IL-6, and IL-1β transcripts [2]: significantly greater mRNA decay compared with actinomycin D alone
TNF secretion [3]: strong concentration-dependent inhibition
IL-1β secretion ([3]; more potent than in monocytes): concentration-dependent inhibition
IL-6 secretion ([3]; more potent than in monocytes): concentration-dependent inhibition
Total TTP levels (surrogate for TTP phosphorylation state) (TTP): dose-dependent reduction in total TTP levels
Inflammatory cytokine production including TNF, IL-6, and GM-CSF (LPS-stimulated PBMCs; LPS-stimulated healthy donor PBMCs): inhibits inflammatory cytokine production
IL-1β inhibition in PBMCs after LPS stimulation (LPS-stimulated PBMCs; PBMCs): no inhibition of IL-1β was observed
Onset of reduction of TNF production ([4]; 60-, 120-, and 150-mg dose cohorts): reduced as early as day 2
Maximal TNF inhibition (percentage change from baseline) ([4]; 150-mg dose cohort): 70%
TNF inhibition maintained during the dosing period ([4]; 150-mg dose cohort, 14 days): approximately 70%
Maximal inhibition of IL-6 [4, 7]: 50%
Maximal inhibition of MIP-1α [4, 7]: 50%
TNF inhibition, ex vivo LPS-stimulated blood ([4]; all doses > 10 mg): inhibited TNF at all doses > 10 mg, and this inhibition was sustained until day 14
MIP-1α production [4, 8]: inhibited with continuous dosing
MIP-1β production [4, 8]: inhibited with continuous dosing
IL-6 expression [5]: inhibited
IL-17A expression [5]: inhibited
MCP-1 expression [5]: inhibited
TNF expression [5]: inhibited
Dose proportionality of concentration and exposure ([6]; 10 to 150 mg once daily over 14 days): linear, dose-proportional increase in concentration and exposure
Day-to-day plasma accumulation ([6]; all 5 dose levels, minimal detectable plasma CC-99677 > 24 h after dosing): limited to no day-to-day plasma accumulation
Cmax ([6]; oral, 150-mg dose level, read-out: Geometric mean Cmax expressed as molar concentration): ~0.8 µM
Cmax ([6]; day 1, 10 mg oral, read-out: Geometric mean peak concentration (Cmax, CV%)): 0.0205 µg/mL
Cmax ([6]; day 1, 30 mg oral, read-out: Geometric mean peak concentration (Cmax, CV%)): 0.0634 µg/mL
Cmax ([6]; day 1, 60 mg oral, read-out: Geometric mean peak concentration (Cmax, CV%)): 0.15 µg/mL
Cmax ([6]; day 1, 120 mg oral, read-out: Geometric mean peak concentration (Cmax, CV%)): 0.269 µg/mL
Cmax ([6]; day 1, 150 mg oral, read-out: Geometric mean peak concentration (Cmax, CV%)): 0.257 µg/mL
